How the values were obtained:
[1] = molecular target: T1, alpha 2C adrenoceptors (Homo sapiens, UniProt P18825); experiment: Displacement of [3H]RX 821002 binding in CHO cells (Eurofins); conditions: 2 nM [3H]RX 821002, 60 min, 22° C., human recombinant, read-out: inhibition of binding of specific ligand
T1 construct: host or cells: CHO cells
T1 sequence (P18825 1-462): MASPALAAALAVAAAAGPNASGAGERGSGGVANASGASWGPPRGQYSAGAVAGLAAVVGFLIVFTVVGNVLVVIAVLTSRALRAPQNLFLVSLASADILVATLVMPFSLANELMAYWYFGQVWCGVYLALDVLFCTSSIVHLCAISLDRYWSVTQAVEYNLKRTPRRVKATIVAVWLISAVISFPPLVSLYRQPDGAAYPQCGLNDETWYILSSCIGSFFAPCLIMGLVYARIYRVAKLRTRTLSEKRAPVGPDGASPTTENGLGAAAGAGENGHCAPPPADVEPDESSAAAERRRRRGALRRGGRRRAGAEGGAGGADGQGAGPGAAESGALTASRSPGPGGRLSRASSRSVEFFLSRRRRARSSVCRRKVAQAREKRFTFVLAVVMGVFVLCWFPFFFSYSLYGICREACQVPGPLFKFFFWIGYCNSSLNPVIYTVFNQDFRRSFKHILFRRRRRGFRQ
Experimental: (§1) Method. The displacement by compound (II-1) of binding of selective ligands of alpha adrenergic receptors 1D and 2C (0.2 nM [^3H]Prazosin and 2 nM [^3H]RX 821002, respectively) was evaluated for 60 min at 22° C. in CHO cells expressing the human recombinant adrenoceptors (Eurofins).

[2] = molecular target: T2, alpha 1D adrenoceptors (Homo sapiens, UniProt P25100); experiment: Displacement of [3H]Prazosin binding in CHO cells (Eurofins); conditions: 0.2 nM [3H]Prazosin, 60 min, 22° C., human recombinant, read-out: inhibition of binding of specific ligand
T2 construct: host or cells: CHO cells
T2 sequence (P25100 1-572): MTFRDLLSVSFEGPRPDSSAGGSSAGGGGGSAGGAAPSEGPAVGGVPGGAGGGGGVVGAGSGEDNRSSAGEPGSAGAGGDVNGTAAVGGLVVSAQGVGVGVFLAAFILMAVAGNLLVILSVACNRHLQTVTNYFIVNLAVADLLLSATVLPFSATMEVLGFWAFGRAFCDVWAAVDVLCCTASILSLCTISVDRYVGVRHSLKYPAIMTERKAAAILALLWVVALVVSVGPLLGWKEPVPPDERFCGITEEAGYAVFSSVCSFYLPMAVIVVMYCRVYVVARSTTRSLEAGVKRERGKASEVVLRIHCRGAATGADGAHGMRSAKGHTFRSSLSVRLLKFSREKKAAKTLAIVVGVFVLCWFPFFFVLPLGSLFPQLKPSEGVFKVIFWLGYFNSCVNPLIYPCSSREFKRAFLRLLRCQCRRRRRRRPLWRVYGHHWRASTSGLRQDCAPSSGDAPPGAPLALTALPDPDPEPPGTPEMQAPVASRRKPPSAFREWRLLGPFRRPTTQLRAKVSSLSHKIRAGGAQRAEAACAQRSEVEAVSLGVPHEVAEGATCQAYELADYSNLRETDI
Experimental: as §1

[3] = molecular target: T3, human OCT2 (Homo sapiens, UniProt O15244); experiment: OCT inhibition in transfected cells ([3H]ASP+ uptake); type: cell-based
T3 construct: expressed in transfected cells; host or cells: COS cells
T3 sequence (O15244 1-555): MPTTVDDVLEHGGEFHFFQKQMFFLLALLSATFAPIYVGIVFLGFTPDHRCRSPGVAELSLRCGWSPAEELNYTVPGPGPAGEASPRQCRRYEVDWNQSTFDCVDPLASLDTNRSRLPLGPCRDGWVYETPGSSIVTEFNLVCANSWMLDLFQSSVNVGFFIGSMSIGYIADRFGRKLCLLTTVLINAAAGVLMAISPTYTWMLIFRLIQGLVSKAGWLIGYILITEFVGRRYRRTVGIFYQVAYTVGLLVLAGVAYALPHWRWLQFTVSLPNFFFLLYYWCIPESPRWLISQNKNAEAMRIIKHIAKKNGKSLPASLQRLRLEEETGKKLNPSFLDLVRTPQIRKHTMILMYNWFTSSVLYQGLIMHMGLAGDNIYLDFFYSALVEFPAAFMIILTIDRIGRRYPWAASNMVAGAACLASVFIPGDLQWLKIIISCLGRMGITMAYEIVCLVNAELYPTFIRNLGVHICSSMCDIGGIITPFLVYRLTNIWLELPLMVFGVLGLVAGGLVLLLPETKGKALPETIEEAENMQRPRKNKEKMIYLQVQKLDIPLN
Excerpt: Method. […] Tested concentrations: 1.10^−9; 3.10^−9; 1.10^−8; 3.10^−8; 1.10^−7; 3.10^−7; 1.10^−6; 3.10^−6 mol·L^−1.

COc1ccc2c(c1)C=C/C(=C/c1cc[n+](C(C)C)c3ccccc13)N2C(C)C.[I-] [II-1, (Z)-1-isopropyl-4-((1-isopropyl-6-methoxyquinolin-2(1H)-ylidene)methyl)quinolin-1-ium iodide]
inhibition at 1 µM [1]: 66% | inhibition at 1 µM [2]: 69% | IC50 less than that of D24 on human and rodent OCTs ([3]; hOCT2 IC50 versus literature D24 value): 3 to 4 fold | IC50 ([3]; uptake of [3H]ASP+ (5 μM) in COS cells transfected with human OCT2, 20 min, 37° C.): 0.082 µM

Reference: patent US11414398B2, “Selective organic cation transporters inhibitors for the treatment of depressive disorders” (priority 2017, dated 2022)
